Laboratory results published in paper PMC10810011 (Expert opinion on drug delivery, 2023).

Assays:
Muscarinic M2 = target: T1, Muscarinic M2 (Homo sapiens, UniProt P08172); experiment: InVEST radioligand filter binding, Muscarinic M2; details: M13 20 μM, 100 = no effect
T1 sequence (P08172 1-466): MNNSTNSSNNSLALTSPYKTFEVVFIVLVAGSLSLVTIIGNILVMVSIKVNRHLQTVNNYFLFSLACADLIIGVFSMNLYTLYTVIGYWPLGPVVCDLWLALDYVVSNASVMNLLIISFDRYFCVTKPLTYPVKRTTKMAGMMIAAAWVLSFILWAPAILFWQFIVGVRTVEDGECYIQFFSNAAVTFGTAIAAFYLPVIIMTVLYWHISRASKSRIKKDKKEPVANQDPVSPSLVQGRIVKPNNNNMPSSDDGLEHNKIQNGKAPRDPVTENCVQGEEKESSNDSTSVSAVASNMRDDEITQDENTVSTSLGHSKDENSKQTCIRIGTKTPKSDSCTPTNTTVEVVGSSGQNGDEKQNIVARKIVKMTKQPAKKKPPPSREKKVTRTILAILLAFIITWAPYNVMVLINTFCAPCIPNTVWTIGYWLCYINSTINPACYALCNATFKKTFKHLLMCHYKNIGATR

Opioid mu = Opioid mu (Homo sapiens, UniProt P35372); experiment: InVEST radioligand filter binding, Opioid mu; details: M13 20 μM, 100 = no effect
5-HT2A = 5-HT2A (Homo sapiens, UniProt P28223); experiment: InVEST radioligand filter binding, 5-HT2A; details: M13 20 μM, 100 = no effect
D1 dopamine = D1 dopamine (Homo sapiens, UniProt P21728); details: M13 20 μM, 100 = no effect
[1] = tested on: Salmonella typhimurium TA98; experiment: Ames test, strain TA98; details: +S9 or -S9

Sequence of 5-HT2A (P28223 whole entry): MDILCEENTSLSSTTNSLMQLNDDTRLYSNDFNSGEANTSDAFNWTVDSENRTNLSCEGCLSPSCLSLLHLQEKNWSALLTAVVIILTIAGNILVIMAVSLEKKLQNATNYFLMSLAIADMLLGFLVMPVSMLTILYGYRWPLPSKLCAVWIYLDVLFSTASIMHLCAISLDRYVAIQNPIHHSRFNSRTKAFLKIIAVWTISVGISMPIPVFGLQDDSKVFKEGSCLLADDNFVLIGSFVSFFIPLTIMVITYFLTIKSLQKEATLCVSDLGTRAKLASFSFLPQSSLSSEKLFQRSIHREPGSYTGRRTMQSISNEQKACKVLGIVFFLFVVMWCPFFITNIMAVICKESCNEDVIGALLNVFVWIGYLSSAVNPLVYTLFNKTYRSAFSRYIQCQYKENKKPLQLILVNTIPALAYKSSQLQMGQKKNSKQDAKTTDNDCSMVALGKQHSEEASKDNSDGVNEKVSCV
Sequence of D1 dopamine (P21728 whole entry): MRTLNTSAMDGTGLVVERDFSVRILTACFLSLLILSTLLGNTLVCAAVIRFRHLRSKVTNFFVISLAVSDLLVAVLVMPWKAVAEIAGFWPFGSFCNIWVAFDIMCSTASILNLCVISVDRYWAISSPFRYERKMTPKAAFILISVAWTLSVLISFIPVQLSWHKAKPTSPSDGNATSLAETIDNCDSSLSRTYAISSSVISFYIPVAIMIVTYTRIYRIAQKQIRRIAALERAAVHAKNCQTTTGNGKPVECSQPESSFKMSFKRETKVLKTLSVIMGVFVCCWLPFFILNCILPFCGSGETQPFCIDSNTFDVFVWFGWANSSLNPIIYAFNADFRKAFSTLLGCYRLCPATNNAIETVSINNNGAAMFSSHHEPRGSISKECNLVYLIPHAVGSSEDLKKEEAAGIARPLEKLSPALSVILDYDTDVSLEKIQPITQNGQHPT
Sequence of Opioid mu (P35372 whole entry): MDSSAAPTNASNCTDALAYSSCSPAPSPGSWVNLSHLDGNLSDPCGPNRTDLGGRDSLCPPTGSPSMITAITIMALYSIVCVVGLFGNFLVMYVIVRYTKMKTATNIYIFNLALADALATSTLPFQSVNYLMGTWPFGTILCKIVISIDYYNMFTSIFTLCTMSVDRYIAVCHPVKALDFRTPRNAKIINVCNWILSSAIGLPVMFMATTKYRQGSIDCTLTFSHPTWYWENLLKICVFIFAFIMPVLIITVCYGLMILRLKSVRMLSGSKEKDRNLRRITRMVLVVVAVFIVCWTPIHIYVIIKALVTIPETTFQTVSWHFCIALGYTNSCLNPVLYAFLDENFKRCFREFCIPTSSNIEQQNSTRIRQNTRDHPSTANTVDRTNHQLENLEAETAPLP

CCCCCC(CC(=O)CCc1ccc(O)c(OC)c1)SC[C@H](NC(=O)CC[C@H](N)C(=O)O)C(=O)NCC(=O)O (stereo partly shown) [M13, 5-glutathione-6-shogaol]
% Activity Data 1 (Muscarinic M2; repetition 1): 93%
% Activity Data 2 (Muscarinic M2; repetition 2): 115%
% Activity Data 1 (Opioid mu; repetition 1): 98%
% Activity Data 2 (Opioid mu; repetition 2): 96%
% Activity Data 1 (5-HT2A; repetition 1): 99%
% Activity Data 2 (5-HT2A; repetition 2): 98%
% Activity Data 1 (D1 dopamine; repetition 1): 100%
% Activity Data 2 (D1 dopamine; repetition 2): 116%
number of revertant colonies ([1]; TA98, 156 ~ 5000 μg/plate): did not increase
mutation factor ([1]; TA98, all concentrations 156 ~ 5000 μg/plate): less than 1.6
